The test system of assay [1] is MO4 cells. The experiment in a line: Sulforhodamine B assay (cell growth). The assay is classed as cell-based, murine. The conditions noted are these: 4 days. Here is the method: MO4 cells were treated with dimethyl sulfoxide (DMSO, solvent control), 0.001, 0.01, 0.1 or 1 μg/ml JC168 for 4 days. After said 4 days of incubation the cells were fixed and stained with sulforhodamine B to determine cellular protein content. Excess dye was removed by washing. Protein-bound dye was dissolved and optical density was measured. Data represent optical density (OD) as a percentage of solvent control (mean and standard deviation, n=6).
FIG. 2: Comparison of JC168 and paclitaxel to inhibit cell growth. MO4 cells were treated with dimethyl sulfoxide (DMSO, solvent control), 1 μg/ml JC168 or 1 μg/ml paclitaxel for 4 days. After said 4 days of incubation the cells were fixed and stained with sulforhodamine B to determine cellular protein content. Excess dye was removed by washing. Protein-bound dye was dissolved and optical density was measured. Data represent optical density (OD) as a percentage of solvent control (mean and standard deviation, n=6). […]
The sulforhodamine B (SRB) assay was used for cell density determination. […] The method allows a large number of samples to be tested within a few days, and is a quantitative assay for growth inhibition by microtubule inhibitors. […] The protein-bound dye was dissolved in 10 mM Tris base solution for OD determination at 510 nm using a microplate reader. […]

Assay [2] deals with cytoplasmic microtubule complex. The experiment in a line: Immunocytochemistry of the cytoplasmic microtubule complex. The assay is classed as cell-based, rat kangaroo (Potorous tridactylus). The conditions noted are these: PtK2 cells. Here is the method:
The PtK2 cell line was established from the kidney tissue of an adult male rat kangaroo (Potorous tridactylus).
Cells were seeded on glass coverslips in culture medium, supplemented with fetal bovine serum, at an initial concentration of 10,000/coverslip. After incubation overnight to allow spreading, treatments started at 37° C. for 1, 4 or 24 h. Cultures were then rinsed with phosphate-buffered saline and fixed in methanol at −20° C. The primary rabbit anti-tubulin polyclonal antibody was a gift from Dr. De Brabander (Janssen Life Sciences, Beerse, Belgium).
PtK2 cells were treated with DMSO (solvent control), JC168, or paclitaxel (positive control). After 1 hour, 4 hours, and 24 hours of incubation, cells were fixed and stained for the cytoplasmic microtubule complex.

For assay [3], the system named is MO4 cells. Kind of assay: MTT assay (MTT conversion). Format: cell-based, murine. The conditions noted are these: 4 days. Here is the method: FIG. 3: JC168 inhibits MTT conversion. MO4 cells were treated with dimethyl sulfoxide (DMSO, solvent control), 0.001, 0.01, 0.1 or 1 μg/ml JC168 for 4 days. Then, 3-(4,5-dimethylthiazol-2-yl)-2,5-diphenyltetrazolium bromide was added and the cultures were incubated to allow the cells to reduce the MTT into formazan. The formazan was dissolved and optical density was measured. Data represent optical density (OD) as a percentage of solvent control (mean and standard deviation, n=6).
FIG. 4: Comparison of JC168 and paclitaxel to inhibit MTT conversion. MO4 cells were treated with dimethyl sulfoxide (DMSO, solvent control), 1 μg/ml JC168 or 1 μg/ml paclitaxel for 4 days. Then, 3-(4,5-dimethylthiazol-2-yl)-2,5-diphenyltetrazolium bromide was added and the cultures were incubated to allow the cells to reduce the MTT into formazan. The formazan was dissolved and optical density was measured. Data represent optical density (OD) as a percentage of solvent control (mean and standard deviation, n=6).
As test cells for functional assays MO4 cells were used, which are murine virally transformed fibrosarcoma-like cells. […]
MTT (3-(4,5-Dimethylthiazol-2-yl)-2,5-diphenyltetrazolium bromide, a yellow tetrazole), was reduced to purple formazan in living cells. […] The absorbance of this colored solution was quantified by measuring it at a wavelength between 500 and 600 nm by a spectrophotometer. […]

In assay [4] the test system is MDA-MB231 GFP-LUC cells. Kind of assay: Collagen type I invasion assay. Format: cell-based, human. Conditions: for Histological sections of the collagen gels: cells on top of the gel: after 14 days. Here is the method:
Invading cells were counted by phase-contrast microscopy as cells with extensions penetrating into the gel. (A) Invasion was calculated as the percentage of invading cells per high powered field (mean and standard deviation, n=10). Microphotographs of representative cultures of MDA-MB231 GFP-LUC cells treated with DMSO (B), 1 μg/ml JC168 (C), and 1 μg/ml paclitaxel (D) after 24 hours of incubation on top of a collagen type I gel. Scalebar=100 μm.
These cells are derived from a human mammary carcinoma and were stably transfected with green fluorescent protein (GFP) and luciferase (LUC).
Tissue invasion requires infiltration into an extracellular matrix (ECM) dominated by networks of collagen type I. The invasion model, presented here, consists of native, acid-extracted rat tail collagen type I containing nonhelical telopeptides situated at the N- and C-terminal ends. These telopeptides play an important role in intermolecular covalent cross-links necessary for a gel architecture presenting itself as a structural barrier to cancer cell traffic. Collagen type I solution was prepared with a final concentration of 1 mg ml^−1 collagen type I by mixing the following pre-cooled (stored at 4° C.) components: 4 volumes collagen type I (stock is 3.49 mg ml^−1), 5 volumes of calcium- and magnesium-free Hank's balanced salt solution (CMF-HBSS), 1 volume of minimal essential medium (MEM) (10×), 1 volume of 0.25 M NaHCO3, 2.65 volumes of standard medium and 0.3 volumes of 1M NaOH to make the solution alkaline. The collagen type I solution was gently poured into the wells of a 6-well plate. The experimental set-up was placed at 37° C. in a humidified atmosphere with 10% CO2 in air for at least 1 h. After gelification, a cell suspension of MDA-MB231 GFP-LUC cells was added on top of the collagen gels and incubated for 24 hours. […] Invasion is calculated as the percentage of invading cells per high powered field and is expressed as the mean and standard deviation. The number of examined fields is 10. The sections were stained with hematoxylin-eosin.
MDA-MB231 GFP-LUC cells were treated with DMSO (solvent control), JC168, or paclitaxel (positive control) or left untreated (control) and incubated on a collagen type I gel. After 24 hours of incubation, invasion into the collagen was evaluated by phase-contrast microscopy. […] From this we can conclude that the number of invaded cells is clearly lower in the treated cultures.

The subject of assay [5] is MO4 cells. Kind of assay: Chick heart invasion assay. The assay is classed as cell-based, murine. The conditions noted are these: 1 μg/ml, invasion of MO4 cells into embryonic chick heart. Here is the method: Aggregates of MO4 cells were prepared by diluting single dissociated cells to appropriate concentrations in 6 ml complete growth medium in a 50 ml Erlenmeyer flask and incubated on a Gyrotory shaker at 37° C. and 70 rpm in a humidified atmosphere with 10% CO2 in air for 72 h. The aggregates were confronted overnight on top of semi-solid agar medium with precultured heart fragments (PHF, diameter 0.4 mm) prepared from 9-day-old chick embryos. Suspension organotypic cultures were incubated in 1.5 ml culture medium with or without a test compound on a Gyrotory shaker at 120 rpm under a controlled atmosphere containing 10% CO2 in air. Cells were fixed in Bouin-Hollande's solution and embedded in paraffin for histologic determination of cell invasiveness. Consecutive sections were stained with haematoxylin-eosin. Invasion is defined as the progressive occupation of PHF by the confronting test cells. Microscopic analysis of all consecutive sections from a confronting culture allowed the reconstruction of the interaction between the cell aggregate and the PHF in three dimensions.
The observation of different patterns of interaction has led to the following scale:
Grade I and II are observed with non-invasive cell populations, while grade III an IV are typical of invasion. To evaluate progression with time, histological analysis was done on confronting cultures fixed after different incubation periods.
MO4 cells were confronted with precultured heart fragments and the organotypic cultures were incubated in suspension in the presence of DMSO (solvent control), JC168 or paclitaxel (positive control) for 2-4 days.

SMILES strings stand for the structures.

Regarding `CC[C@H](/C=C(/C)[C@@H]1C[C@@H](OC)C[C@H](O)C(C)(C)c2cccc(c2)C[C@@H](O)C(O)C(=O)O1)CO` (stereo partly drawn) [JC168, (1′Z,3R,3′R,4S,7S,9S,11S)-3,4,11-Trihydroxy-7-(3′-hydroxymethyl-1′-methylpent-1′-enyl)-9-methoxy-12,12-dimethyl-6-oxabicyclo[11.3.1]heptadeca-1(17),13,15-trien-5-one], the “Potency to inhibit cell growth as compared to paclitaxel” value in assay [1] (1 μg/ml each, FIG. 2) is on record as 5%. In addition, in assay [1] (0.001-1 μg/ml, FIG. 1), the “Effect on cell growth (sulforhodamine B, words)” value is “inhibits cell growth”. In assay [2] (0.1 μg/ml), the “Effect on the cytoplasmic microtubule complex, 1 hour” value (“Effect … 1 hour” below) is “disturbed”; the “Effect on the cytoplasmic microtubule complex, 4 hours” value is “disturbed”; the “Effect on the cytoplasmic microtubule complex, 24 hours” value (“Effect … 24 hours” below) was “disturbed”. Moreover, in assay [2] (1.0 μg/ml), the “Effect … 1 hour” value is on record as “disturbed”; the “Effect on the cytoplasmic microtubule complex, 4 hours” value is “disturbed”; the “Effect … 24 hours” value was “disturbed”. The “Potency to inhibit MTT conversion as compared to paclitaxel” value in assay [3] (1 μg/ml each, FIG. 4) is recorded as 3%. For the same compound, the “Effect on MTT conversion into formazan” value in assay [3] (0.001-1 μg/ml, FIG. 3) is given as “inhibits the conversion”. The “Potency to inhibit invasion in collagen type I as compared to paclitaxel” value in assay [4] (MDA-MB231 GFP-LUC cells, 24 hours) amounted to 89%. The “Effect on invasion into collagen type I” value in assay [4] (MDA-MB231 GFP-LUC cells, 24 hours, FIG. 5) is reported as “inhibits invasion”. Besides, in assay [4], the “Histological sections of the collagen gels: cells on top of the gel” value is “low number of cells on top of the gel”. In addition, the “Number of organotypic cultures classified Grade I” value in assay [5] (incubation 2 days) is “n = 5”. Further, the “Number of organotypic cultures classified Grade II” value in assay [5] (incubation 3 days) is given as “n = 5”. Besides, in assay [5] (incubation 4 days), the “Number of organotypic cultures classified Grade II” value is reported as “n = 3” and the “Number of organotypic cultures classified Grade III” value is “n = 3”.

Regarding `CC(=O)O[C@H]1C(=O)[C@@]2(C)[C@H]([C@H](OC(=O)c3ccccc3)[C@]3(O)C[C@H](OC(=O)[C@H](O)[C@@H](NC(=O)c4ccccc4)c4ccccc4)C(C)=C1C3(C)C)[C@]1(OC(C)=O)CO[C@@H]1C[C@@H]2O` [paclitaxel, reference compound], in assay [2] (0.1 μg/ml), the “Effect … 1 hour” value was “normal”; the “Effect on the cytoplasmic microtubule complex, 4 hours” value was “disturbed”; the “Effect … 24 hours” value was “disturbed”. Besides, in assay [2] (1.0 μg/ml), the “Effect … 1 hour” value is listed as “disturbed”; the “Effect on the cytoplasmic microtubule complex, 4 hours” value is listed as “disturbed”; the “Effect … 24 hours” value is recorded as “disturbed”. In addition, the “Histological sections of the collagen gels: cells on top of the gel” value in assay [4] is “low number of cells on top of the gel”. Moreover, the “Number of organotypic cultures classified Grade II” value in assay [5] (incubation 4 days) is given as “n = 5”.

These data come from patent publication US9771344B2, “Peloruside analogs” (Universiteit Gent, priority 2013, dated 2017).
